According to patent publication US6165984A, “Naringin and naringenin as inhibitors of acyl CoA-cholesterol-o-acyltransferase” (Korea Institute of Science & Technology, priority 1997, dated 2000):

Assays:
[1] = test system: acyl CoA-cholesterol-o-acyltransferase (ACAT); assay: ACAT activity in liver microsomes of naringin- or naringenin-fed rats (Example 5); type: in vivo, Sprague-Dawley rat; conditions: liver microsomes of rats fed 0.1% compound in 1% cholesterol diet; for ACAT activity: control 806.2 ± 105.2; for % Inhibition on ACAT activity: vs control group
Text: (§1) 30 four-week-old Sprague-Dawley rats (Taihan laboratory animal center, Korea) each weighing about 90 to 110 g were evenly divided into three dietary groups by a randomized block design. The rats of the three groups were fed with three different high-cholesterol diets, i.e., AIN-76 laboratory animal diet (ICN Biochemicals, Cleveland, Ohio, U.S.A.) containing 1% cholesterol (Control group), and 1% cholesterol plus 0.1% naringin or naringenin, respectively.
To determine the effects of naringin and naringenin feeding to rats on the activity of ACAT, microsomes were separated from the liver tissue to be used as an enzyme source.
First, the rats of the three groups prepared in Example 3 were sacrificed by decapitation and the livers were excised. 1 g each of the livers was homogenized in 5 ml of homogenization medium (0.1 M KH2 PO4, pH 7.4, 0.1 mM EDTA and 10 mM β-mercaptoethanol). The homogenate was centrifuged at 3,000×g for 10 min. at 4° C. and the supernatant thus obtained was centrifuged at 15,000×g for 15 min. at 4° C. to obtain a supernatant. The supernatant was put into an ultracentrifuge tube (Beckman) and centrifuged at 100,000×g for 1 hour at 4° C. to obtain microsomal pellets, which were then suspended in 3 ml of the homogenization medium and centrifuged at 100,000×g for 1 hour at 4° C. The pellets thus obtained were suspended in 1 ml of the homogenization medium. The concentration of proteins in the resulting suspension was determined by Lowry's method and then adjusted to 4 to 8 mg/ml. The resulting suspension was stored in a deep freezer (Biofreezer, Forma Scientific Inc.).
6.67 μl of 1 mg/ml cholesterol solution in acetone was mixed with 6 μl of 10% Triton WR-1339(Sigma Co.) in acetone and, then, acetone was removed from the mixture by evaporation using nitrogen gas. Distilled water was added to the resulting mixture in an amount to adjust the concentration of cholesterol to […].
To 10 μl of the resulting aqueous cholesterol solution were added 10 μl of 1 M KH2 PO4 (pH 7.4), 5 μl of 0.6 mM bovine serum albumin (BSA), 10 μl of microsome solution obtained in (Step 1) and 55 μl of distilled water (total 90 μl). The mixture was pre-incubated in a waterbath at 37° C. for 30 min.
10 μl of (1-^14 C) oleoyl-CoA solution (0.05 μCi, final concentration: 10 μM) was added to the pre-incubated mixture and the resulting mixture was incubated in a waterbath at 37° C. for 30 min. […]
200 μl of the resulting supernatant was put in a scintillation bottle and 4 ml of scintillation fluid (Lumac) was added thereto. The mixture was assayed for radioactivity with 1450 Microbeta liquid scintillation counter (Wallacoy, Finland). ACAT activity was calculated as picomoles of cholesteryl oleate synthesized per min. per mg protein (pmoles/min/mg protein).

[2] = Serum GOT and GPT levels in rats (Example 7); type: in vivo, Sprague-Dawley rat; conditions: 1% cholesterol diet plus 0.02% naringin, six weeks
Text: as §1, with “20” for “30”, “two” for “three”, “0.02% naringin,” for “0.1% naringin or naringenin,”
Blood samples were taken from the rats of the two dietary groups and serum GOT (glutamate-oxaloacetate transaminase) and GPT (glutamate-pyruvate transaminase) levels were determined in accordance with the method of Reitman and Frankel (Reitman, S. and J. S. Frankel, Am. J. Clin. Pathol., 28, 56(1956)). GOT and GPT are synthesized in the liver and heart, and released into blood stream upon the damage of these organs. Accordingly, GOT and GPT are representative markers of the liver-function and high serum GOT and GPT levels mean severe damage of the liver.

[3] = test system: hepatic cells; conditions: rabbits, six weeks
Procedure: The same procedure as in (Step 1) was repeated except that 30 three-month old New Zealand White rabbits (Yeonam Horticulture and Animal Husbandry College, Korea) each weighing about 2.5 to 2.6 kg were used in place of the rats, and the rabbits were fed for six weeks with three different diets, i.e., RC4 diet containing 1% cholesterol (Control group); 1% cholesterol plus 1 mg/kg Lovastatin® (Comparative group); and 1% cholesterol plus 0.1% naringin, respectively.
Thereafter, the livers were separated from the rabbits and the histopathological observations were carried out as follows.
The rabbits were anesthetized with an intramuscular injection of ketamine (75 mg/kg) and subjected to an abdominal incision. […] The fixed liver was washed sufficiently with water, dehydrated stepwise with 70%, 80%, 90% and 100% ethanol and, then, embedded in paraffin. The embedded liver was sectioned in 4 μm thickness with a microtome and stained with hematoxylin and eosin. The stained liver specimen was made transparent with xylene, mounted with permount, and then observed under a microscope to confirm the presence of lesions.

[4] = Serum GOT, GPT and γGTP in a person (Example 7, Step 4); type: in vivo; conditions: human, oral, 10 mg/kg daily
Procedure: Naringin was orally administered to a person at a daily dose of 10 mg/kg for 68 days and serum GOT, GPT and γGTP levels were determined just before the administration (day 0), and 45 and 68 days after the administration (day 45 and day 68), respectively. Consequently, serum GOT levels at day 45 and day 68 decreased by 17%, respectively, in comparison to that of day 0. Serum GPT levels at day 45 and day 68 decreased by 15% and 19%, respectively, in comparison to that of day 0. Further, serum γGTP levels at day 45 and day 68 decreased by 25% and 51%, respectively, in comparison to that of day 0.

[5] = Serum γGTP in a habitual drinker (Example 7, Step 4); type: in vivo; conditions: human, oral, 6 mg/kg daily, 30 days; day 0: 129 IU/l
Procedure: On the other hand, naringin was orally administered to a person, who had drunk alcoholic beverages habitually in an amount of 100 cc per day, at a daily dose of 6 mg/kg for 30 days and serum γGTP level was determined just before the administration (day 0) and 30 days after the administration (day 30). Consequently, initial serum γGTP level at day 0 was 129 IU/l, while that of day 30 decreased to 69 IU/l which is within the normal range.

Row | SMILES | ACAT activity [1] [pmole/min/mg protein] | % Inhibition on ACAT activity [1] [%] | serum GOT level lower than control group [2] | serum GPT level lower than control group [2] [%] | occurrence of fatty liver ([3]; 1% cholesterol diet plus 0.1% naringin) | microscopic features of the liver (FIGS. 2A-2C) ([3]; 1% cholesterol diet, 1 mg/kg Lovastatin, 0.1% naringin) | decrease of serum GOT level, day 45 vs day 0 ([4]; day 45) [%] | decrease of serum GPT level, day 45 vs day 0 ([4]; day 45) [%] | decrease of serum γGTP level, day 45 vs day 0 ([4]; day 45) [%] | decrease of serum GOT level, day 68 vs day 0 ([4]; day 68) [%] | decrease of serum GPT level, day 68 vs day 0 ([4]; day 68) [%] | serum γGTP level at day 30 [5] [IU/l]
1 | O=C1C[C@@H](c2ccc(O)cc2)Oc2cc(O)cc(O)c21 [naringenin] | 666.3 ± 65.3 | 17.4 | – | – | – | – | – | – | – | – | – | –
2 | C[C@@H]1O[C@@H](O[C@H]2[C@H](Oc3cc(O)c4c(c3)O[C@H](c3ccc(O)cc3)CC4=O)O[C@H](CO)[C@@H](O)[C@@H]2O)[C@H](O)[C@H](O)[C@H]1O [naringin, Naringin] | 643.5 ± 80.7 | 20.2 | about 30% | ~10 | strongly inhibits the occurrence of fatty liver | normal and the deposition of fat is not observed | 17 | 15 | 25 | 17 | 19 | 69
